Data taken from US20100267561A1, “HERBICIDAL PYRIDAZINONE DERIVATIVES” (priority 2007, published 2010).

Experiments:
Experiment in all cases: Test E pre-/postemergence plant response
Type in all cases: in vivo
[1] = test system: broadleaf signalgrass (Brachiaria platyphylla); settings: scale 0 to 100
Method in brief: (§1)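 Greenhouse test. Compound, formulated in a non-phytotoxic solvent with surfactant, is applied preemergence to planted seeds and postemergence to 1- to 4-leaf plants of 2 to 18 cm. Plants are compared with controls after 14 to 21 days and scored 0 (no effect) to 100 (complete control).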

[2] = test system: naked crabgrass (Digitaria nuda); settings: scale 0 to 100
Method in brief: as §1

[3] = test system: pitted morningglory (Ipomoea lacunosa); settings: scale 0 to 100
Method in brief: as §1

[4] = test system: green foxtail (Setaria viridis); settings: scale 0 to 100
Method in brief: as §1

[5] = test system: johnsongrass (Sorghum halepense); settings: scale 0 to 100
Method in brief: as §1

[6] = test system: quackgrass (Elytrigia repens); settings: scale 0 to 100
Method in brief: as §1

[7] = test system: common groundsel (Senecio vulgaris); settings: Postemergence, scale 0 to 100
Method in brief: as §1

[8] = test system: itchgrass (Rottboellia cochinchinensis); settings: scale 0 to 100
Method in brief: as §1

[9] = test system: barnyardgrass (Echinochloa crus-galli); settings: scale 0 to 100
Method in brief: as §1

[10] = test system: southern (S.) sandbur (Cenchrus echinatus); settings: scale 0 to 100
Method in brief: as §1

[11] = test system: black mustard (Brassica nigra); settings: scale 0 to 100
Method in brief: as §1

[12] = test system: surinam grass (Brachiaria decumbens); settings: scale 0 to 100
Method in brief: as §1

[13] = test system: common chickweed (Stellaria media); settings: Postemergence, scale 0 to 100
Method in brief: as §1

[14] = test system: Italian ryegrass (Lolium multiflorum); settings: scale 0 to 100
Method in brief: as §1

[15] = test system: goosegrass (Eleusine indica); settings: scale 0 to 100
Method in brief: as §1

COC(=O)Oc1cnn(C)c(=O)c1-n1nc(-c2ccc(Cl)cc2)cc1C [Compound 33]
90: Plant response rating, Crabgrass, Naked ([2]; Postemergence, 16 g ai/ha) | Plant response rating, Crabgrass, Naked ([2]; Postemergence, 31 g ai/ha) | Plant response rating, Sandbur, S. ([10]; 16 g ai/ha, Preemergence) | Plant response rating, Sandbur, S. ([10]; 31 g ai/ha, Preemergence) | Plant response rating, Sandbur, S. ([10]; Postemergence, 62 g ai/ha) | Plant response rating, Ryegrass, Italian ([14]; Postemergence, 31 g ai/ha)
0: Plant response rating, Morningglory ([3]; 16 g ai/ha, Preemergence) | Plant response rating, Morningglory ([3]; 31 g ai/ha, Preemergence) | Plant response rating, Morningglory ([3]; 62 g ai/ha, Preemergence) | Plant response rating, Morningglory ([3]; Postemergence, 8 g ai/ha) | Plant response rating, Morningglory ([3]; Postemergence, 16 g ai/ha) | Plant response rating, Morningglory ([3]; Postemergence, 31 g ai/ha) | Plant response rating, Morningglory ([3]; Postemergence, 62 g ai/ha) | Plant response rating, Quackgrass ([6]; Postemergence, 8 g ai/ha) | Plant response rating, Groundsel ([7]; 8 g ai/ha) | Plant response rating, Groundsel ([7]; 16 g ai/ha) | Plant response rating, Groundsel ([7]; 31 g ai/ha) | Plant response rating, Groundsel ([7]; 62 g ai/ha) | Plant response rating, Mustard, Black ([11]; 8 g ai/ha, Preemergence) | Plant response rating, Mustard, Black ([11]; 16 g ai/ha, Preemergence) | Plant response rating, Mustard, Black ([11]; 31 g ai/ha, Preemergence) | Plant response rating, Mustard, Black ([11]; 62 g ai/ha, Preemergence) | Plant response rating, Mustard, Black ([11]; Postemergence, 8 g ai/ha) | Plant response rating, Mustard, Black ([11]; Postemergence, 16 g ai/ha) | Plant response rating, Mustard, Black ([11]; Postemergence, 31 g ai/ha) | Plant response rating, Mustard, Black ([11]; Postemergence, 62 g ai/ha) | Plant response rating, Chickweed ([13]; 8 g ai/ha) | Plant response rating, Chickweed ([13]; 16 g ai/ha) | Plant response rating, Chickweed ([13]; 31 g ai/ha)
98: Plant response rating, Signalgrass ([1]; 31 g ai/ha, Preemergence) | Plant response rating, Crabgrass, Naked ([2]; Postemergence, 62 g ai/ha) | Plant response rating, Johnsongrass ([5]; 62 g ai/ha, Preemergence) | Plant response rating, Johnsongrass ([5]; Postemergence, 31 g ai/ha) | Plant response rating, Johnsongrass ([5]; Postemergence, 62 g ai/ha) | Plant response rating, Surinam Grass ([12]; 16 g ai/ha, Preemergence) | Plant response rating, Surinam Grass ([12]; 31 g ai/ha, Preemergence) | Plant response rating, Ryegrass, Italian ([14]; 16 g ai/ha, Preemergence) | Plant response rating, Goosegrass ([15]; 16 g ai/ha, Preemergence) | Plant response rating, Goosegrass ([15]; 31 g ai/ha, Preemergence)
20: Plant response rating, Quackgrass ([6]; 16 g ai/ha, Preemergence) | Plant response rating, Quackgrass ([6]; 31 g ai/ha, Preemergence)
50: Plant response rating, Johnsongrass ([5]; Postemergence, 8 g ai/ha)
60: Plant response rating, Foxtail, Green ([4]; Postemergence, 8 g ai/ha) | Plant response rating, Quackgrass ([6]; 62 g ai/ha, Preemergence) | Plant response rating, Quackgrass ([6]; Postemergence, 31 g ai/ha) | Plant response rating, Itchgrass ([8]; 16 g ai/ha, Preemergence)
35: Plant response rating, Ryegrass, Italian ([14]; Postemergence, 8 g ai/ha) | Plant response rating, Goosegrass ([15]; Postemergence, 8 g ai/ha) | Plant response rating, Goosegrass ([15]; Postemergence, 16 g ai/ha)
85: Plant response rating, Johnsongrass ([5]; 31 g ai/ha, Preemergence)
80: Plant response rating, Itchgrass ([8]; 31 g ai/ha, Preemergence) | Plant response rating, Itchgrass ([8]; 62 g ai/ha, Preemergence) | Plant response rating, Barnyardgrass ([9]; 16 g ai/ha, Preemergence) | Plant response rating, Sandbur, S. ([10]; Postemergence, 31 g ai/ha)
65: Plant response rating, Foxtail, Green ([4]; 16 g ai/ha, Preemergence) | Plant response rating, Foxtail, Green ([4]; Postemergence, 16 g ai/ha) | Plant response rating, Itchgrass ([8]; Postemergence, 16 g ai/ha) | Plant response rating, Barnyardgrass ([9]; 8 g ai/ha, Preemergence) | Plant response rating, Sandbur, S. ([10]; Postemergence, 8 g ai/ha)
70: Plant response rating, Quackgrass ([6]; Postemergence, 62 g ai/ha) | Plant response rating, Itchgrass ([8]; Postemergence, 31 g ai/ha)
30: Plant response rating, Quackgrass ([6]; Postemergence, 16 g ai/ha)
100: Plant response rating, Signalgrass ([1]; 62 g ai/ha, Preemergence) | Plant response rating, Signalgrass ([1]; Postemergence, 62 g ai/ha) | Plant response rating, Crabgrass, Naked ([2]; 31 g ai/ha, Preemergence) | Plant response rating, Crabgrass, Naked ([2]; 62 g ai/ha, Preemergence) | Plant response rating, Foxtail, Green ([4]; 31 g ai/ha, Preemergence) | Plant response rating, Foxtail, Green ([4]; 62 g ai/ha, Preemergence) | Plant response rating, Barnyardgrass ([9]; 31 g ai/ha, Preemergence) | Plant response rating, Barnyardgrass ([9]; 62 g ai/ha, Preemergence) | Plant response rating, Barnyardgrass ([9]; Postemergence, 16 g ai/ha) | Plant response rating, Barnyardgrass ([9]; Postemergence, 31 g ai/ha) | Plant response rating, Barnyardgrass ([9]; Postemergence, 62 g ai/ha) | Plant response rating, Sandbur, S. ([10]; 62 g ai/ha, Preemergence) | Plant response rating, Surinam Grass ([12]; 62 g ai/ha, Preemergence) | Plant response rating, Surinam Grass ([12]; Postemergence, 31 g ai/ha) | Plant response rating, Surinam Grass ([12]; Postemergence, 62 g ai/ha) | Plant response rating, Ryegrass, Italian ([14]; 31 g ai/ha, Preemergence) | Plant response rating, Ryegrass, Italian ([14]; 62 g ai/ha, Preemergence) | Plant response rating, Goosegrass ([15]; 62 g ai/ha, Preemergence)
95: Plant response rating, Signalgrass ([1]; Postemergence, 31 g ai/ha) | Plant response rating, Crabgrass, Naked ([2]; 16 g ai/ha, Preemergence) | Plant response rating, Foxtail, Green ([4]; Postemergence, 62 g ai/ha) | Plant response rating, Barnyardgrass ([9]; Postemergence, 8 g ai/ha) | Plant response rating, Ryegrass, Italian ([14]; Postemergence, 62 g ai/ha)
40: Plant response rating, Foxtail, Green ([4]; 8 g ai/ha, Preemergence) | Plant response rating, Itchgrass ([8]; Postemergence, 8 g ai/ha)
75: Plant response rating, Signalgrass ([1]; 16 g ai/ha, Preemergence) | Plant response rating, Signalgrass ([1]; Postemergence, 8 g ai/ha) | Plant response rating, Signalgrass ([1]; Postemergence, 16 g ai/ha) | Plant response rating, Crabgrass, Naked ([2]; 8 g ai/ha, Preemergence) | Plant response rating, Crabgrass, Naked ([2]; Postemergence, 8 g ai/ha) | Plant response rating, Foxtail, Green ([4]; Postemergence, 31 g ai/ha) | Plant response rating, Johnsongrass ([5]; 16 g ai/ha, Preemergence) | Plant response rating, Johnsongrass ([5]; Postemergence, 16 g ai/ha) | Plant response rating, Itchgrass ([8]; Postemergence, 62 g ai/ha) | Plant response rating, Sandbur, S. ([10]; Postemergence, 16 g ai/ha) | Plant response rating, Surinam Grass ([12]; Postemergence, 8 g ai/ha) | Plant response rating, Surinam Grass ([12]; Postemergence, 16 g ai/ha) | Plant response rating, Ryegrass, Italian ([14]; Postemergence, 16 g ai/ha) | Plant response rating, Goosegrass ([15]; 8 g ai/ha, Preemergence) | Plant response rating, Goosegrass ([15]; Postemergence, 31 g ai/ha) | Plant response rating, Goosegrass ([15]; Postemergence, 62 g ai/ha)
